≈ marks a conversion by molar mass, not a printed value. Like-named read-outs stand apart in the source and are kept apart here. Residues, ends and D or L forms follow the SMILES beside them.
Key:
S. aureus USA300 [1] = type: cell-based, Staphylococcus aureus
Protocol: Two types of experiments were conducted to evaluate the anti-biofilm activity of these peptides against S. aureus USA300 grown under a static condition for 24 hours to form established biofilms in presence of tryptic soy broth (TSB). The experiment was set up using a flat bottom, 96-well, polystyrene microtiter plates (Corning, COSTAR). In short, S. aureus USA300 (10^5 CFU/mL) in fresh TSB media was made from an exponentially growing culture. 200 μL of this bacterial culture was added to each well of the microtiter plates. The plates are then incubated at 37° C. for 24 hours to allow biofilm formation. Media was then carefully removed followed by washing with sterile 1×PBS to remove any unattached bacteria. Solution containing μL of 10× peptide solution and 180 μL of fresh TSB were added. The plates were again incubated at 37° C. for another 24 hours. To measure the extent of biofilm disruption by the peptides as a function of biofilm reduction, crystal violet staining was performed. Media was pipetted out and the wells were carefully washed with 200 μL of PBS to remove the loosely attached cells. Subsequently, 200 μL of 99% methanol was added for fixation and the plates were allowed to sit for 15 minutes. The plates were finally aspirated and dried. Lastly, staining was done with 200 μL of 1% crystal violet in water for 5 minutes. Excess stain was gently rinsed off with tap water, and plates were air-dried. Further, stains were solubilized in 200 μL of 33% glacial acetic acid followed by colorimetric measurement at 600 nm on a Chromate® microtiter plate reader. The amounts of biofilm growth with and without compound treatments were calculated.
In addition, live cell contents of the peptide acted biofilms was estimated by XTT [2,3-bis(2-methyloxy-4-nitro-5-sulfophenyl)-2H-tertazolium-5-carboxanilide]assay by following the manufacturer's instructions with modifications. A 10% XTT solution in TSB media was added to each well and the plates were again incubated for 2 hours at 37° C. Absorbance at 450 nm (only media with XTT containing wells served as the blank) was obtained using Chromate® microtiter plate reader. Percentage of biofilm reduction for the peptide was plotted assuming 100% biofilm growth is achieved on the bacterial wells without peptide treatment.

S. aureus USA300 [2] = type: cell-based, Staphylococcus aureus; details: for loss in activity compared to the WT: MRSA USA300
Protocol: (§1) The antimicrobial activity of peptides was evaluated using a standard broth microdilution protocol. In brief, exponential phase bacteria at 10^6 CFU were incubated with serially diluted peptides overnight for ˜20 hours at 37° C. The plates were read on a ChroMate® 4300 Microplate Reader at 630 nm (GMI, Ramsey, Minn.).

E. coli ATCC 25922 = type: cell-based, Escherichia coli; details: ATCC 25922, 20 h
Protocol: as §1

human red blood cells = experiment: Hemolytic ability (Example 3); type: cell-based; details: concentration that causes 50% hemolysis
Protocol: Hemolytic analysis of selected peptides was performed using an established protocol. Briefly, human blood cells (UNMC Blood Bank) were washed three times with phosphate buffer saline (PBS) and diluted to a 2% solution. After peptide treatment, incubation at 37° C. for one hour, and centrifugation at 13,000 rpm, aliquots of the supernatant were transferred to a fresh 96-well microplate. To assess peptide cytotoxicity, the amount of hemoglobin released was measured at 545 nm. The percent lysis was calculated by assuming 100% release when human blood cells were treated with 1% TRITON™ X-100, and 0% release when incubated with PBS buffer.

B. subtilis 168 = type: cell-based, Bacillus subtilis
Protocol: (§2) The bacterial strains used here included Gram-positive bacteria Staphylococcus aureus USA300 LAC, Staphylococcus epidermidis 1457, Bacillus subtilis 168, and Gram-negative Escherichia coli K12. Clinical strains of S. aureus, including Mu50, UAMS-1 and Newman, were also evaluated.
(§3) The antimicrobial activity of peptides was evaluated using a standard broth microdilution protocol (Wang, G. (2008) J. Biol. Chem., 283:32637-32643). In brief, exponential phase bacteria at 10^6 CFU were incubated with serially diluted peptides overnight for ˜20 hours at 37° C. The plates were read on a ChroMate® 4300 Microplate Reader at 630 nm (GMI, Ramsey, Minn.). […] In addition, the effects of human serum (up to 10%), pH (6.8, 7.4 and 8.0) and 150 mM sodium chloride (NaCl) on MICs against S. aureus USA300 were also evaluated (Mishra et al. (2015) RSC Advances 5:59758-59769).

S. epidermidis 1457 = type: cell-based, Staphylococcus epidermidis
Protocol: as §2, §3

S. aureus USA300 [3] = type: cell-based, Staphylococcus aureus; remark: listed apart in the source
Protocol: as §2, §3

E. coli K12 = type: cell-based, Escherichia coli; details: K12
Protocol: as §2, §3

S. aureus USA300 [4] = type: cell-based, Staphylococcus aureus; details: USA300
Protocol: The minimal bactericidal concentration (MBC) was determined by plating 50 μl of the content in the clear wells of the above MIC assays. MBC was determined on the petri dishes without bacterial colony formation after overnight growth (Wang et al. (2012) Biochemistry 51:653-664).

S. aureus USA300 [5] = experiment: Propidium iodide membrane permeation; type: cell-based, Staphylococcus aureus
Protocol: Fluorescence spectroscopy was also used to follow bacterial killing. In brief, a serially diluted 10× peptide (10 μL) was made in 96-well coming COSTAR microtiter plates. Propidium iodide (2 μL) was added at 50 μM to each well which was finally incubated with S. aureus USA300 bacteria (88 μL at a final OD600 ˜0.1) with continuous shaking at 100 rpm, 37° C. in a FLUOstar® Omega (BMG LABTECH Inc, NC) microplate reader. The plates were read every 5 minutes for a total duration of 2 hours with excitation and emission wavelengths at 584 nm and 620 nm respectively. Plots were made using averaged readings from duplicated experiments after subtraction of the media control.

Row | SMILES | loss in activity compared to the WT (S. aureus USA300 [2]) | S. aureus (MIC) (S. aureus USA300 [2]; S. aureus USA300) | E. coli (MIC) (E. coli ATCC 25922) | HL50 (human red blood cells) | other results
1 | CC[C@H](C)[C@H](NC(=O)[C@H](CCCNC(=N)N)NC(=O)[C@H](CCCNC(=N)N)NC(=O)[C@H](CC(C)C)NC(=O)[C@H](Cc1c[nH]c2ccccc12)NC(=O)[C@H](Cc1c[nH]c2ccccc12)NC(=O)[C@@H](N)Cc1c[nH]c2ccccc12)C(=O)N[C@@H](CCCNC(=N)N)C(N)=O [Peptide W8R, WWWLRRIR] (H-WWWLRRIR-NH2; N-terminus assumed) | four-fold | 12.5 µM | 25 µM | >200 µM | killing in preformed biofilms (XTT) (S. aureus USA300 [1]; 12.5 μM): 20%
2 | CC[C@H](C)[C@H](NC(=O)[C@H](CCCNC(=N)N)NC(=O)[C@H](CCCNC(=N)N)NC(=O)[C@H](CC(C)C)NC(=O)[C@H](CCCNC(=N)N)NC(=O)[C@H](Cc1c[nH]c2ccccc12)NC(=O)[C@@H](N)Cc1c[nH]c2ccccc12)C(=O)N[C@@H](Cc1c[nH]c2ccccc12)C(N)=O [Peptide W3R, WWRLRRIW] (H-WWRLRRIW-NH2; N-terminus assumed) | four-fold | 12.5 µM | 25 µM | >200 µM | killing in preformed biofilms (XTT) (S. aureus USA300 [1]; 25 μM): neither W1R nor W3R was able to kill
3 | CC[C@H](C)[C@H](NC(=O)[C@H](CCCNC(=N)N)NC(=O)[C@H](CO)NC(=O)[C@H](CC(C)C)NC(=O)[C@H](Cc1c[nH]c2ccccc12)NC(=O)[C@H](Cc1c[nH]c2ccccc12)NC(=O)[C@@H](N)Cc1c[nH]c2ccccc12)C(=O)N[C@@H](Cc1c[nH]c2ccccc12)C(N)=O [TetraF2W, WWWLSRIW] (H-WWWLSRIW-NH2; N-terminus and C-terminus assumed) | – | – | – | – | MIC B. subtilis 168 (B. subtilis 168): 6.2 µM (≈ 7.64 µg/mL); MIC S. epidermidis 1457 (S. epidermidis 1457): >50 µM; fold more potent than temporin-SHf (anti-MRSA) (S. aureus USA300 [3]; S. aureus USA300): 4-8 fold; MIC S. aureus USA300 (S. aureus USA300 [3]; USA300): 3.1 to 6.2 µM; MIC E. coli K12 (E. coli K12): >100 µM; MBC S. aureus USA300 (S. aureus USA300 [4]): 6.2 µM (≈ 7.64 µg/mL)
4 | CN[C@H](CC(C)C)C(=O)N[C@H]1C(=O)N[C@@H](CC(N)=O)C(=O)N[C@H]2C(=O)N[C@H]3C(=O)N[C@H](C(=O)N[C@H](C(=O)O)c4cc(O)cc(O)c4-c4cc3ccc4O)[C@H](O)c3ccc(c(Cl)c3)Oc3cc2cc(c3O[C@@H]2O[C@H](CO)[C@@H](O)[C@H](O)[C@H]2O[C@H]2C[C@](C)(N)[C@H](O)[C@H](C)O2)Oc2ccc(cc2Cl)[C@H]1O [vancomycin, reference compound] | – | – | – | – | propidium iodide fluorescence change after treatment (S. aureus USA300 [5]): no increase in fluorescence
5 | CC[C@H](C)[C@H](NC(=O)[C@H](CCCNC(=N)N)NC(=O)[C@H](CCCNC(=N)N)NC(=O)[C@H](CC(C)C)NC(=O)[C@H](Cc1c[nH]c2ccccc12)NC(=O)[C@H](Cc1c[nH]c2ccccc12)NC(=O)[C@@H](N)CCCNC(=N)N)C(=O)N[C@@H](Cc1c[nH]c2ccccc12)C(N)=O [Peptide W1R, RWWLRRIW] (H-RWWLRRIW-NH2; N-terminus assumed) | four-fold | 12.5 µM | 25 µM | >200 µM | killing in preformed biofilms (XTT) (S. aureus USA300 [1]; 25 μM): neither W1R nor W3R was able to kill
6 | CC[C@H](C)[C@H](NC(=O)[C@H](CCCNC(=N)N)NC(=O)[C@H](CCCNC(=N)N)NC(=O)[C@H](CC(C)C)NC(=O)[C@H](Cc1c[nH]c2ccccc12)NC(=O)[C@H](CCCNC(=N)N)NC(=O)[C@@H](N)Cc1c[nH]c2ccccc12)C(=O)N[C@@H](Cc1c[nH]c2ccccc12)C(N)=O [Peptide W2R, WRWLRRIW] (H-WRWLRRIW-NH2; N-terminus assumed) | – | – | 25 µM | 100 µM | killing in preformed biofilms (XTT) (S. aureus USA300 [1]; 12.5 μM): 80%; S. aureus (MIC) (S. aureus USA300 [2]; USA300, 20 h): 6.2 µM
7 | CCCCCCCCCC(=O)N[C@@H](Cc1c[nH]c2ccccc12)C(=O)N[C@H](CC(N)=O)C(=O)N[C@@H](CC(=O)O)C(=O)N[C@@H]1C(=O)NCC(=O)N[C@@H](CCCN)C(=O)N[C@@H](CC(=O)O)C(=O)N[C@H](C)C(=O)N[C@@H](CC(=O)O)C(=O)NCC(=O)N[C@H](CO)C(=O)N[C@@H]([C@H](C)CC(=O)O)C(=O)N[C@@H](CC(=O)c2ccccc2N)C(=O)O[C@@H]1C [daptomycin, reference compound] | – | – | – | – | propidium iodide fluorescence change after treatment (S. aureus USA300 [5]): rapid increase in fluorescence

Source: US20190048052A1, “ANTI-MICROBIAL PEPTIDES AND COATINGS” (Board of Regents of the University of Nebraska, priority 2016, published 2019)
